Reference: PMC12765074, “Mechanistic insights into enterocin C targeting the undecaprenyl phosphate recycling protein BacA” (The Journal of Biological Chemistry, 2025)
Where “and” joins values, the source holds several entries; their conditions need not be identical. Equal values may be shown once. Marks after values point to notes of the source that are not given here.

Columns and labels:
[1] = biological target: BacAec (Escherichia coli, UniProt P60932); conditions: DDM micelles
Method: The C55-PP phosphatase assays were performed in a 10-μl reaction mixture containing 20 mM Tris-HCl, pH 7.4, 400 μM CaCl2, 150 mM NaCl, 0.1% (w/v) DDM and 50 μM radiolabeled [^14C]C55-PP (900 Bq). The BacA concentration was adjusted in order to achieve less than 30% substrate hydrolysis. The mixture was incubated for 10 min at 37 °C, and the reaction was stopped by freezing in liquid nitrogen. Substrates and products were separated by thin-layer chromatography on precoated silica gel 60 plates (Merck) using 1-propanol/ammonium hydroxide/water (6:3:1, v/v/v) as the mobile phase. Radioactive spots were located and quantified using a radioactivity scanner (model Multi-Tracermaster LB285, Berthold-France). When the phosphatase activity was tested at different pH values, the following buffers were used at 20 mM: sodium acetate (pH 4–7) or Tris-HCl (pH 7–8). In the EDTA assay, the protein was pre-treated with 200 μM EDTA. For pH and EDTA assays, CaCl2 was omitted from the reaction buffer.

[2] = test system: E. faecalis EfΔbacA cells expressing BacAef D110A; assay: survival test; assay type: cell-based, Enterococcus faecalis; conditions: 0.5 μM EntC, 30 min, 37 °C, three experiments
[3] = liposome permeabilisation assay (BCECF), protein-free; assay type: biochemical; conditions: 5 μM EntC, internal pH 8, external pH 6
[4] = test system: E. faecalis EfΔbacA cells expressing BacAef D106A D110A; assay: survival test; assay type: cell-based, Enterococcus faecalis; conditions: 0.5 μM EntC, 30 min, 37 °C, three experiments
[5] = test system: E. faecalis EfΔbacA cells expressing BacAef S26A; assay: survival test; assay type: cell-based, Enterococcus faecalis; conditions: 0.5 μM EntC, 30 min, 37 °C, p ≤ 0.01, three experiments
[6] = biological target: BacAef (Enterococcus faecalis, UniProt A0ACD6TE02); assay: ITC, BacAef; assay type: binding; conditions: ITC, 20 °C
Method: ITC experiments were performed with an ITC200 isothermal titration calorimeter from MicroCal (Malvern Panalytical, Malvern, UK). The experiments were carried out at 20 °C. The protein concentration in the microcalorimeter cell (0.2 ml) was 33 μM. Nineteen 2-μl injections of peptides at 400 μM were performed at intervals of 240 s while stirring at 500 rpm. To limit buffer mismatching effect between the cell and the syringe, and the heat-of-dilution effect for having glycerol in the protein solution, the latter were extensively dialyzed, prior to the ITC measurement, in a buffer containing 20 mM Tris-HCl pH 7.4, 200 mM NaCl, 0.1% DDM, to remove glycerol. Then, the dialysis buffer was used to dilute the EntC peptides to further limit buffer mismatching. The experimental data were fitted to theoretical titration curves with the software supplied by MicroCal (ORIGIN). This software uses the relationship between the heat generated by each injection and ΔH (enthalpy change in kcal/mol), Ka (the association binding constant in M^−1), n (the number of binding sites), total protein concentration and free and total ligand concentrations.

[7] = test system: BacAef-liposomes; conditions: 5 μM EntC, internal pH 8, external pH 6, peptide:lipid c.a. 1:1300, without EntC 1.10^-4 sec^-1
[8] = test system: E. faecalis EfΔbacA cells expressing BacAef variants (K209A variants); assay: spot-on-lawn assay, D106/D110/K209 variants; assay type: cell-based, Enterococcus faecalis; conditions: compared to wild-type BacAef
[9] = test system: E. faecalis EfΔbacA cells expressing BacAef K209A D106A; assay: survival test; assay type: cell-based, Enterococcus faecalis; conditions: 0.5 μM EntC, 30 min, 37 °C, p ≤ 0.01, three experiments
[10] = test system: EfΔbacA cells carrying pIL:bacAef; assay: spot assay on bacA-complemented strain; assay type: cell-based, Enterococcus faecalis; conditions: spot on BHI agar
[11] = test system: E. faecalis EfΔbacA cells expressing BacAef K209A D106A D110A; assay: survival test; assay type: cell-based, Enterococcus faecalis; conditions: 0.5 μM EntC, 30 min, 37 °C, p ≤ 0.0001, three experiments
[12] = test system: L. lactis IL1403; assay: spot-on-lawn antibacterial assay, L. lactis; assay type: cell-based, Lactococcus lactis; conditions: 6 μl droplets, L. lactis IL1403, M17G agar, overnight
[13] = test system: E. faecalis EfΔbacA cells expressing BacAef; assay: survival test; assay type: cell-based, Enterococcus faecalis; conditions: 0.5 μM EntC, 30 min
[14] = test system: E. faecalis EfΔbacA cells expressing BacAef K209A D110A; assay: survival test; assay type: cell-based, Enterococcus faecalis; conditions: 0.5 μM EntC, 30 min, 37 °C, p ≤ 0.001, three experiments
[15] = test system: E. faecalis EfΔbacA cells expressing BacAef D106A; assay: survival test; assay type: cell-based, Enterococcus faecalis; conditions: 0.5 μM EntC, 30 min, 37 °C, three experiments

Sequence of BacAec (P60932 whole entry): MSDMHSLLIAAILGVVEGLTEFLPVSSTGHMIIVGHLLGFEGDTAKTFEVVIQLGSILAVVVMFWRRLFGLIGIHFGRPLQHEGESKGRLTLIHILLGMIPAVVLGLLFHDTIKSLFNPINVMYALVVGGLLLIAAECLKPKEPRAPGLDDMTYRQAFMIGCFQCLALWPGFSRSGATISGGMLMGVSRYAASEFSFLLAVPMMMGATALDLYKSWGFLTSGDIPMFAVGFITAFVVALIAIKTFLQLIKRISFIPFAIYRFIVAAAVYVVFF

**Q.** With Enterocin C [EntC] as the substance, how does the “inhibition of BacAec C55-PP phosphatase activity” value [1] read?
**A.** Its value is “not inhibited”.

**Q.** What about the “% of survival” value [2] of the same substance?
**A.** Its value is 2.8 ± 1.0%.

**Q.** And the “membrane permeabilization of protein-free liposomes” value [3]?
**A.** The value was “did not affect protein-free liposomes”.

**Q.** What about the “% of survival” value [4] of the same substance?
**A.** Its value is 4.0 ± 3.0%.

**Q.** And the “% of survival” value [5]?
**A.** Its value is 6.8% and 6.8 ± 2.4 ^c %.

**Q.** And the “-TΔS” value ([6]; into [BacAef] 33 μM)?
**A.** The value was 14.1 kcal/mol.

**Q.** And the ΔG ([6]; into [BacAef] 33 μM)?
**A.** Its ΔG is -9.0 kcal/mol.

**Q.** What about the ΔH ([6]; into [BacAef] 33 μM) of the same substance?
**A.** The ΔH was -23.1 kcal/mol.

**Q.** What about the Kd ([6]; peptides 400 μM into [BacAef] 33 μM, 20 mM Tris-HCl pH 7.4, 200 mM NaCl, 0.1% DDM, at least triplicate) of the same substance?
**A.** Its Kd is 0.196 ± 0.047 µM.

**Q.** What about the n ([6]; peptides 400 μM into [BacAef] 33 μM, pH 7.4, 0.1% DDM, at least triplicate) of the same substance?
**A.** The n was 0.90 ± 0.01.

**Q.** And the “rate of decrease of BCECF fluorescence” value [7]?
**A.** The value was “about 6.10^-4 sec^-1”.

**Q.** What about the “susceptibility of EfΔbacA expressing K209A variants” value [8] of the same substance?
**A.** The value was “small reduction in susceptibility”.

**Q.** And the “% of survival” value [9]?
**A.** The value was 14 ± 4.0 ^c %.

**Q.** What about the “susceptibility of EfΔbacA strain with ectopic bacA” value [10] of the same substance?
**A.** Its value is “fully restored”.

**Q.** What about the “% of survival” value [11] of the same substance?
**A.** The value was 54% and 54 ± 11 ^d %.

**Q.** What about the “antibacterial activity (spot-on-lawn), L. lactis” value [12] of the same substance?
**A.** Its value is “sensitivity to both bacteriocins”.

**Q.** What about the “% of survival” value ([13]; 37 °C, BHI, CFU vs same cells without EntC, three independent experiments) of the same substance?
**A.** Its value is less than 1%.

**Q.** What about the cells killed ([13]; exponentially growing cells expressing wild-type BacAef) of the same substance?
**A.** The cells killed was “more than 99%”.

**Q.** And the “% of survival” value [14]?
**A.** Its value is 7.6 ± 1.0 ^e %.

**Q.** And the “% of survival” value [15]?
**A.** Its value is 1.6 ± 1.0%.
